Laboratory results taken from patent publication US20030049698A1, “Diagnosis and treatment of gastrointestinal disease” (priority 2002, published 2003).

Tests used:
CCK-B/gastrin receptor = biological target: T1, CCK-B/gastrin receptor (Rattus norvegicus, UniProt P30553); conditions: reportedly; cited from earlier work
T1 sequence (P30553 1-452): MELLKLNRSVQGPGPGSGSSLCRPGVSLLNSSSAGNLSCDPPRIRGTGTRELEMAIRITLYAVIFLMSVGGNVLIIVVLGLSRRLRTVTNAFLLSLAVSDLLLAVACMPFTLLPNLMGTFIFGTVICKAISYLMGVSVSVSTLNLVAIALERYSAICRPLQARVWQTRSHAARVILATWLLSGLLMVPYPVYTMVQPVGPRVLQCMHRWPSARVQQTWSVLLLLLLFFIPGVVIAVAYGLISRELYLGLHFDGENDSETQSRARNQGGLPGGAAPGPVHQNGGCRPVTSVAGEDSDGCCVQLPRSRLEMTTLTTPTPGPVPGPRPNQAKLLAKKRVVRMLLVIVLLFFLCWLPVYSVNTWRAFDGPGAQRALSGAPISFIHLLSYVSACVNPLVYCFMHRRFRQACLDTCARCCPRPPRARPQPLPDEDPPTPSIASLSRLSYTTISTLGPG

gastrin deficient mice [1] = experiment: Gastric fundic mucosa proliferation by BrdU incorporation; type: in vivo; conditions: infusion 10 nmol/kg/hr; G-17 effect at one day; versus saline or G-17 alone
Experimental: (§1) The mice were fasted 24 hours prior to sacrifice.
Immunohistochemical detection of BrdU incorporation was performed using the avidin-biotin monoclonal antibody technique as previously described (51). Ten well oriented oxyntic glands or colonic crypts were counted per slide. Of the ten colonic crypts, 4 were obtained from the rectum, 3 from the descending colon, and 3 from the ascending colon. The BrdU labeling index was calculated by counting the number of BrdU-positive cells per gland/crypt and expressing the result as a percentage of the total number of cells per gland/crypt.

gastrin deficient mice [2] = experiment: Electron microscopy of parietal cells (activation, vacuolar canaliculi, lipofuscin bodies); type: in vivo
Experimental: as §1
Small tissue specimens (<1 mm^3) were taken from the oxyntic gland area and immediately immersed in a mixture of […] 1% glutaraldehyde, 3% formaldehyde, 0.075M sodium phoshpate buffer, pH 7.2, for 6 hours. The specimens were post-fixed in 1% osmium tetroxide for 1 hour, dehydrated in graded acetone solutions and embedded in Epon 812. Ultrathin sections (60-80 nm) were cut on a LKB MK III Ultratome, contrasted with uranyl acetate and lead citrate and examined in a Philips CM10 (Philips,) transmission electron microscope (63). Parietal cells were identified by the presence of secretory canuliculi and/or tubulovesicles, and ECL cells were identified by the presence of characteristic granules and vesicles in the cytoplasm. Point counting methods were used to analyze the voulume density of the various organelles as previously described (64,65). The cells were photographed (nucleated profiles only) at 6,000× magnification; the prints were then enlarged to 20,000× for planimetric analysis. Activated parietal cells were defined as cells having secretory canuliculi in their cytoplasm. The percentage of activated parietal cells was determined by analyzing the electron micrographs of 100 parietal cells per group. Vacuolar canaliculi were defined as canuliculi containing lysosomal bodies and/or vacuoles in their lumen. Lipofuscin bodies were identified by their high electron density (osmiophilia) in the cytoplasm.

H+/K+-ATPase = H+/K+-ATPase expression by immunohistochemical analysis; type: in vivo, mice; conditions: compared to infusion of saline alone
Experimental: as §1
(§2) At the time of sacrifice, the stomach was divided into thirds longitudinally. One section was fixed in Carnoy's fixative overnight, and then embedded in paraffin. Routine H&E staining was performed. Parietal cells were stained using an antibody to the β subunit of H+/K+-ATPase MA3-923 (Affinity Bioreagents, Golden, Colo.) at a final dilution of 1:100, as previously described (62). Ten well oriented fundic glands were examined for parietal cell number, with the result expressed as number of parietal cells per gland (51).

gastrin deficient mice [3] = experiment: Gastric acid secretion, pyloric ligation, after infusion in gastrin deficient mice; type: in vivo; conditions: 10 nmol/kg/hr, 4 hours pyloric ligation, saline 5.4±2.0 nEq
Experimental: Animals were operated and sacrificed under anesthesia with Metofane.
as §1
After food deprivation for 24 hours, the mice were anesthetized with avertin, the abdominal cavity was incised, and each stomach was rinsed with 1 ml saline through a canula placed in the pylorus. The pylorus was then ligated and the gastric juice was collected 4 hours later (61). The acidity of the gastric contents was measured by titration with 0.02 N NaOH and expressed as H^+ nEq.

gastrin deficient mice [4] = experiment: Parietal cell and ECL cell counts by immunohistochemistry; type: in vivo
Experimental: as §1, §2
Small tissue specimens (2×4 mm) were taken from the greater curvature of the oxyntic mucosa. They were fixed either in 4% 1-Ethyl-3(3-dimethylaminopropyl)-carbodiimide hydrochloride (Sigma, St. Louis, Mo.) for histamine staining, or in 4% paraformaldehyde for VMAT-2 staining, for 8-12 h at 4° C., then rinsed with 20% sucrose in 0.1 M phosphate-buffered saline (pH 7.4). Fresh frozen tissue sections were cut in a cryostat (Bright, Huntington, England) at 10 μm thickness. The sections were thawed onto gelatin-coated glass slides. After washing twice for 10 min with phosphate-buffered saline (pH 7.4), containing 0.25% Triton X-100 (PBS-T), the sections were incubated with either histamine antibody 8431 rabbit (Eurodiagnostic, Mahnö, Sweden) at a final dilution of 1:200 or VMAT-2 antibody B-GP 280-1 (Alpha Diagnostic Int., San Antonio, Tex.) at a dilution of 1:2000 overnight at 4° C. After washing twice with PBS-T (10 min each time), the sections were incubated for 1 h at room temperature with FITC-conjugated goat anti-rabbit IgG (Dako, Glostrup, Denmark) for histamine at a 1:40 dilution or donkey anti-guinea pig IgG (Jacksson InmunoResearch, Göteborg, Sweden) for VMAT-2 at a 1:100 dilution. […] The number of immunostained cells were counted and exressed as number per gland of mucosa.
Parietal and ECL cells were stained immunohistochemically as above. At least ten well oriented glands were then assessed for the number of positively stained cells per gland.

Cc1cccc(NC(=O)N[C@@H]2N=C(c3ccccc3)c3ccccc3N(CC(=O)c3ccccc3C)C2=O)c1 [YM022]
potency relative to YF476 (CCK-B/gastrin receptor): about 5 times

gastrin-17 [G-17]
proliferation rate of the gastric fundic mucosa (BrdU incorporation) (gastrin deficient mice [1]): significantly increased proliferation rate
lipofuscin bodies, percentage of cell volume (gastrin deficient mice [2]; 14 day infusion, saline 0.26±0.10%): 1.88±0.27%
vacuolar canaliculi, percentage of cell volume (gastrin deficient mice [2]; 14 day infusion, saline 0.38±0.38%): 7.50±2.40%
activated parietal cells (gastrin deficient mice [2]; after 14 days of infusion, saline 27%): 27%
effect on H+/K+-ATPase expression (intensity of immunostaining) (H+/K+-ATPase): no effect on H+/K+-ATPase expression
acid output (gastrin deficient mice [3]; after 14 days of infusion): 12.0±2.2 nEq
acid output (gastrin deficient mice [3]; after one day of infusion): 21.8±8.8 nEq
acid output (gastrin deficient mice [3]; after six days of infusion): 37.4±9.4 nEq
effect on ECL cell number (histamine or VMAT-2 staining) (gastrin deficient mice [4]; any time point examined): neither G-17, G17-Gly, or the combination influenced ECL cell number
increase in the number of parietal cells compared to saline (gastrin deficient mice [4]; by day 14 of infusion): 65%
effect on parietal cell number (in words) (gastrin deficient mice [4]; versus saline, or combination versus G-17 alone): significant increase in parietal cell number
